Test results reported in ChEMBL document CHEMBL4007474, “Soluble epoxide hydrolase inhibitors of indolinone alkaloids and phenolic derivatives from Cimicifuga dahurica (Turcz.) Maxim” (Bioorg Med Chem Lett, 2017).
Calls of active or inactive are those of the source. The rule behind the calls is not given here.

Experiments:
[1] = target: T1, Bifunctional epoxide hydrolase 2 (Homo sapiens) (UniProt P34913); experiment: (§1) Inhibition of sEH (unknown origin) using PHOME as substrate after 40 mins by fluorescence photometric method
T1 sequence (whole entry): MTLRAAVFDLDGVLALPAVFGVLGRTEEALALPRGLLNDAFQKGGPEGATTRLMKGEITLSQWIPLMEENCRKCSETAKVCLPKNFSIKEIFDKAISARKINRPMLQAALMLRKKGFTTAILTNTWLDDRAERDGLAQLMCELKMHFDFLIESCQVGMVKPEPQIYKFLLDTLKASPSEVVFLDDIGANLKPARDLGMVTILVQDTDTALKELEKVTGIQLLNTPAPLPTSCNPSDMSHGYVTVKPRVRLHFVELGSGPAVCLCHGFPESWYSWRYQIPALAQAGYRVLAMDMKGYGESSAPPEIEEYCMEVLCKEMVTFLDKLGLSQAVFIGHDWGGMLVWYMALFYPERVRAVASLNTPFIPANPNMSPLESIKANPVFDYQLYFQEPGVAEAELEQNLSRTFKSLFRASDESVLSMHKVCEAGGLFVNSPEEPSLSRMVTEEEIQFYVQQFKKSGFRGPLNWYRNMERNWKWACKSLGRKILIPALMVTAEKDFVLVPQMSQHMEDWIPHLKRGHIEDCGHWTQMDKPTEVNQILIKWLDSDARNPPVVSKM

[2] = target: T2, Bifunctional epoxide hydrolase 2 (Homo sapiens, UniProt P34913); experiment: as §1
T2 sequence (P34913 whole entry): T1 sequence (whole entry)

[3] = target: T1, Bifunctional epoxide hydrolase 2 (Homo sapiens); experiment: Competitive inhibition of sEH (unknown origin) at 0.78 to 6.25 uM using PHOME as substrate measured for 30 mins by Lineweaver-burk plot method
[4] = target: T1, Bifunctional epoxide hydrolase 2 (Homo sapiens); experiment: Inhibition of sEH (unknown origin) at 100 uM using PHOME as substrate after 40 mins by fluorescence photometric method relative to control
[5] = target: T1, Bifunctional epoxide hydrolase 2 (Homo sapiens); settings: 0.78 to 6.25 uM
[6] = target: T1, Bifunctional epoxide hydrolase 2 (Homo sapiens); experiment: Mixed type inhibition of sEH (unknown origin) at 0.78 to 6.25 uM using PHOME as substrate measured for 30 mins by Lineweaver-burk plot method

| Structure (SMILES) | inhibition [1] | IC50 [2] [µM] | inhibition [3] | inhibition [4] [%] | inhibition [5] | inhibition [6] |
| --- | --- | --- | --- | --- | --- | --- |
| COc1ccc(/C=C/C(=O)OCC(=O)Cc2ccc(O)c(O)c2)cc1O [CIMIRACEMATE A] | Dose-dependent effect | 1.1 |  | 104 | Active |  |
| O=C(/C=C/c1ccc(O)c(O)c1)O[C@@H]1C[C@](O)(C(=O)O)C[C@@H](OC(=O)/C=C/c2ccc(O)c(O)c2)[C@H]1O | Dose-dependent effect | 2.8 |  | 81.3 |  | Active |
| COc1ccc(/C=C/C(=O)OCC(=O)c2ccc(O)c(O)c2)cc1O | Dose-dependent effect | 1.6 |  | 98.3 |  | Active |

The next lines start with the values.

| inhibition [1] | IC50 [2] [µM] | inhibition [3] | inhibition [4] [%] | inhibition [5] | inhibition [6] | Structure (SMILES) |
| --- | --- | --- | --- | --- | --- | --- |
| Dose-dependent effect | 1 | Active | 95.1 |  |  | CC(C)=C/C=C1/C(=O)Nc2ccccc21 |
| Dose-dependent effect | 1.8 |  | 99.2 |  | Active | COC(=O)/C=C/c1ccc(O)c(OC)c1 |
| Dose-dependent effect | 1.3 | Active | 77 |  |  | CC(C)=C/C=C1\C(=O)N(C)c2ccccc21 |
| Dose-dependent effect | 0.8 | Active | 80.2 |  |  | CC(C)=C/C=C1/C(=O)N(C)c2ccccc21 |
